Publication PMC10094617, “Iron(III) Complexes with Non-Steroidal Anti-Inflammatory Drugs: Structure, Antioxidant and Anticholinergic Activity, and Interaction with Biomolecules” (International Journal of Molecular Sciences, 2023)

Assays:
[1] = Solubility of the complexes; format: physicochemical
[2] = target: T1, human serum albumin (HSA) (Homo sapiens, UniProt P02768); test: HSA fluorescence emission quenching (albumin binding); conditions: for ΔI/Io (%) quenching of HSA fluorescence: HSA 3 μM, λex 295 nm, λem 351 nm; for K albumin-binding constant (HSA): Scatchard equation; for Kq albumin-quenching constant (HSA): Stern–Volmer, τo = 10^−8 s; for relative HSA fluorescence emission intensity (I/Io, %) remaining: λem,max = 351 nm, up to, % of the initial HSA fluorescence
T1 construct: purchased Sigma-Aldrich Co. (St. Louis, MO, USA)
T1 sequence (P02768 25-609): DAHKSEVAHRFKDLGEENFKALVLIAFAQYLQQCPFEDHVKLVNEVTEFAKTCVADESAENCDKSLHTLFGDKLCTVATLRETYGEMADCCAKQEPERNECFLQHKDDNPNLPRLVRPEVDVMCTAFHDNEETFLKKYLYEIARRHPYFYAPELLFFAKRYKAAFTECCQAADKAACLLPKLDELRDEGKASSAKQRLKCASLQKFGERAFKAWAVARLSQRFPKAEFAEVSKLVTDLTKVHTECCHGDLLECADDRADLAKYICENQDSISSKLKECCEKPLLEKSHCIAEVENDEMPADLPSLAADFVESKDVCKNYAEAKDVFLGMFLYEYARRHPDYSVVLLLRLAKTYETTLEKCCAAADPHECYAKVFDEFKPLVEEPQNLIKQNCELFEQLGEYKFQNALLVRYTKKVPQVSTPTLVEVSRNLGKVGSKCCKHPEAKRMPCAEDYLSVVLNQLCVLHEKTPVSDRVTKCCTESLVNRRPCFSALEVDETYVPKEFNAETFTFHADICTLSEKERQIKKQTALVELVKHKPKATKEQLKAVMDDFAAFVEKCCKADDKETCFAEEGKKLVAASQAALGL
Method: (§1) The albumin-binding study for complexes 1–3 was performed via fluorescence emission quenching experiments using BSA (3 μM) or HSA (3 μM), respectively, in a buffer solution (containing 15-mM trisodium citrate and […] at pH 7.0). The quenching of the emission intensity of tryptophan residues of BSA at 343 nm or HSA at 351 nm was monitored using complexes 1–3 as quenchers with increasing concentrations. The fluorescence emission spectra were recorded in the range of 300–500 nm, with an excitation wavelength of 295 nm. The quantitative studies of the serum albumin fluorescence spectra were performed after correction by subtracting the spectra of the compounds.
(§2) The extent of the inner-filter effect can be roughly estimated with the following formula:(2) Icorr=Imeas×10^ε(λexc)cd/2×10^ε(λem)cd/2 where Icorr = corrected intensity, Imeas = the measured intensity, c = the concentration of the quencher, d = the cuvette (1 cm), ε(λexc), and ε(λem) = the ε of the quencher at the excitation and the emission wavelength, respectively, as calculated from the UV-vis spectra of the complexes.
(§3) The Stern–Volmer and Scatchard graphs are used in order to study the interaction of a quencher with serum albumins. The Stern–Volmer quenching equation is used:(3) Io/I=1+Kq×τ0×[Q]=1+KSV×[Q] where Io = the initial tryptophan fluorescence intensity of SA, I = the tryptophan fluorescence intensity of SA after the addition of the quencher, Kq = the quenching constants of SA, KSV = the Stern–Volmer constant, τo = the average lifetime of SA without the quencher, and [Q] = the concentration of the quencher. The value of KSV (M^−1) can be obtained by the slope of the diagram Io/I versus [Q]. Taking τo = 10^−8 s as the fluorescence lifetime of tryptophan in SA, the value of Kq (M^−1s^−1) is calculated from the equation:(4) KSV=Kq×τo and from the Scatchard equation [130]:(5) ΔI/Io/[Q]=n×K−K×ΔI/Io where n is the number of binding sites per albumin and K is the SA-binding constant, K (in M^−1) is calculated from the slope in plots (ΔI/Io)/[Q] versus (ΔI/Io), and n is given by the ratio of y-intercept to the slope.

DPPH radical scavenging = format: biochemical; conditions: compound 0.1 mM; for DPPH% (DPPH scavenging ability), 20 min / DPPH% (DPPH scavenging ability), 60 min: ethanol
Method: (§4) The antioxidant activity of complexes 1–3 was evaluated via their ability to scavenge the free radicals DPPH, hydroxyl, and ABTS. Each experiment was performed in triplicate and the standard deviation of absorbance was less than 10% of the mean.
Ethanol was also used as a control solution. The absorbance at 517 nm was recorded at room temperature, two times, after 20 and 60 min, in order to examine the time-dependence of the DPPH-scavenging activity. The DPPH-scavenging activity of the compounds was expressed as the percentage reduction of the absorbance values of the initial DPPH solution (RA%). The compounds NDGA and BHT were used as reference compounds.

[3] = target: T2, electric eel acetylcholinesterase (eeAChE) (Electrophorus electricus, UniProt O42275); test: Inhibition of acetylcholinesterase (modified Ellman's method); format: biochemical; conditions: 10^−3 M of the compound; pH 7.4, 37 °C
T2 construct: purchased J&K Scientific Co. (Beijing, China)
T2 sequence (O42275 24-633): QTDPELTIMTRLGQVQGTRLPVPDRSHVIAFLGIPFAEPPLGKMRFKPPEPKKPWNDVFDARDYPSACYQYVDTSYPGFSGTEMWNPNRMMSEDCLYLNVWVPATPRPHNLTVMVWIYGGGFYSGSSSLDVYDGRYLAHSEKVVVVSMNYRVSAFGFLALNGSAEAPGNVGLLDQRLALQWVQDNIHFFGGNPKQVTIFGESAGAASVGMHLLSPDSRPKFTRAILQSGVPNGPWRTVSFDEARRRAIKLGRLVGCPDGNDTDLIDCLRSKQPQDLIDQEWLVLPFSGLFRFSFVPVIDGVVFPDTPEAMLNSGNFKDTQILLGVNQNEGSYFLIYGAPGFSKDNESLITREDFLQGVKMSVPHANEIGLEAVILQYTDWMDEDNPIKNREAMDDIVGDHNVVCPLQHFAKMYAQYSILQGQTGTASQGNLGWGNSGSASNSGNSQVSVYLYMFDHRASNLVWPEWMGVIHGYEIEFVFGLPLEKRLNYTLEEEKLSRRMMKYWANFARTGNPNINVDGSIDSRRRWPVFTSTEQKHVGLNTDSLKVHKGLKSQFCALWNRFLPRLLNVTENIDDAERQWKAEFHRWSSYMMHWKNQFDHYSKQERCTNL
Method: (§5) In the study of cholinesterase inhibitors, the inhibitory effect of the compounds (the NSAIDs and their complexes 1–3) against AChE and BuChE was examined using a modified methodology based on Ellman’s method.
(§6) The ability of the compounds to inhibit AChE and BuChE was evaluated using UV-vis spectroscopy. All the assays were carried out in a 0.1M NaH2PO4/Na2HPO4 buffer at a pH = 7.4. Enzyme solutions were prepared with 2.0 U/mL for AChE and 3.0 U/mL for BuChE. A reaction mixture containing 20 μL of phosphate buffer, 100 μL of DTNB (1-mM), and 40 μL of the enzyme (AChE and BuChE) was incubated with 20 μL of the compounds at various concentrations at 37 °C for 15 min. The reaction was started by the addition of the substrate (20-μL) of ATCI or BTCI solution (1-mM), respectively, and incubation for additional 3 min.
(§7) The enzyme activity was determined by measuring the increase in absorbance at 2-min intervals at 412 nm at 37 °C (ε = 14,150 M^−1cm^−1).
The rate of inhibition of each enzyme by the compounds was calculated according to the following expression:(1) I%=(1−VB/VA)×100 where VB and VA indicate the absorbance measured for ChEs in the presence and absence of inhibitors, respectively. The results are expressed as the average of three repetitions of the tests performed and the standard deviation was less than 3% of the mean. The selectivity index (SI), defined as IC50 BuChE/IC50 AChE, was also calculated. Neostigmine methyl sulfate was used as the appropriate standard.

[4] = target: T3, bovine serum albumin (BSA) (Bos taurus, UniProt P02769); test: BSA fluorescence emission quenching (albumin binding); conditions: for ΔI/Io (%) quenching of BSA fluorescence: BSA 3 μM, λex 295 nm, λem 343 nm; for K albumin-binding constant (BSA): Scatchard equation; for Kq albumin-quenching constant (BSA): Stern–Volmer, τo = 10^−8 s; for relative BSA fluorescence emission intensity (I/Io, %) remaining: λem,max = 343 nm, up to, % of the initial BSA fluorescence
T3 construct: purchased Sigma-Aldrich Co. (St. Louis, MO, USA)
T3 sequence (P02769 25-607): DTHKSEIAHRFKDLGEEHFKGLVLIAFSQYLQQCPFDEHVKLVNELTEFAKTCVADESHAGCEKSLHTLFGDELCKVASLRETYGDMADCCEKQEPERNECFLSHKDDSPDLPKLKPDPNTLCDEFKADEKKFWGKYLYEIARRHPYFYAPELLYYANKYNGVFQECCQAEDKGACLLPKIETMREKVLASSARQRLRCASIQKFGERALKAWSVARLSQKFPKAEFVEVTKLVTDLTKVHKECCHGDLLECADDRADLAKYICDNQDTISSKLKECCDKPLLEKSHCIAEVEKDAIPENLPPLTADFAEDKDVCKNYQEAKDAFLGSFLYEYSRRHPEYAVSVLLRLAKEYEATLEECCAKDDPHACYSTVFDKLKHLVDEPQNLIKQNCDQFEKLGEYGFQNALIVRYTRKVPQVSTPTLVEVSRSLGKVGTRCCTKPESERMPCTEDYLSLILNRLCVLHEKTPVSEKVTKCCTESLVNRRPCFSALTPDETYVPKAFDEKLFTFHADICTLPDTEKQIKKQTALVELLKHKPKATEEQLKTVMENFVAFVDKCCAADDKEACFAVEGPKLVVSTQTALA
Method: as §1, §2, §3

[5] = Competition with DMSO for hydroxyl radicals; format: biochemical; conditions: compound 0.1 mM; 30 min, 37 °C, pH 7.4
Method: as §4
Competition of the tested compounds with DMSO for hydroxyl radicals: The hydroxyl radicals generated by the Fe^3+/ascorbic acid system were detected according to Nash by the determination of formaldehyde produced from the oxidation of DMSO [155]. The reaction mixture contained EDTA (0.1 mM), Fe^3+ (167 μM), DMSO (33 mM) in phosphate buffer (50 mM, pH 7.4), complexes 1–3 (concentration 0.1 mM), and ascorbic acid (10 mM). After a 30-min incubation at 37 °C, the reaction was stopped with CCl3COOH (17% w/v) and the absorbance at λ = 412 nm was measured. Trolox was used as a reference compound. The competition of the compounds with DMSO for •OH, generated by the Fe^3+/ascorbic acid system, expressed as the percentage of inhibition of formaldehyde production, was used for the evaluation of their hydroxyl radical-scavenging activity (OH%).

[6] = target: T4, equine serum butyrylcholinesterase (eqBuChE) (Equus caballus, UniProt P81908); test: Inhibition of butyrylcholinesterase (modified Ellman's method); format: biochemical; conditions: for BuChE (I%) inhibition rate: 10^−3 M of the compound, pH 7.4, 37 °C; for SI (selectivity index = IBuChE/IAChE): ratio of inhibition rates at 10^−3 M
T4 construct: purchased J&K Scientific Co. (Beijing, China); host or cells: equine serum (by the product's name)
T4 sequence (P81908 whole entry): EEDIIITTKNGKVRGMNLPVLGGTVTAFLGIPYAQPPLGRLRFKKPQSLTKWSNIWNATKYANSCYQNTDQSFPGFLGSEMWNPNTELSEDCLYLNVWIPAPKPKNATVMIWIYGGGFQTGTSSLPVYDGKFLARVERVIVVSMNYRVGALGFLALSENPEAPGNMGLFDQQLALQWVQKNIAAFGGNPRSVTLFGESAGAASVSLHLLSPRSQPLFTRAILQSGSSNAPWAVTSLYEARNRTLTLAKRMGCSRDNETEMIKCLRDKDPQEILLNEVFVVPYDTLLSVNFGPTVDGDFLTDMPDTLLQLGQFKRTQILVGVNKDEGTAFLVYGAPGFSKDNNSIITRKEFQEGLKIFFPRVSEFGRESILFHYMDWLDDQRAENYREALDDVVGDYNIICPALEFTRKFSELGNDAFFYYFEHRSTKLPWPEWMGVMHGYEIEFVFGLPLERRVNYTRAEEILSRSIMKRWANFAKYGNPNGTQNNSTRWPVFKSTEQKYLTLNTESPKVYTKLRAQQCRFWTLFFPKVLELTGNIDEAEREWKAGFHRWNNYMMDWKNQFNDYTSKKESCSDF
Method: as §5, §6, §7
The rate of inhibition of each enzyme by the compounds was calculated according to the following expression:(1) I%=(1−VB/VA)×100 where VB and VA indicate the absorbance measured for ChEs in the presence and absence of inhibitors, respectively. […] Neostigmine methyl sulfate was used as the appropriate standard.

Substance	solubility [1]	ΔI/Io (%) quenching of HSA fluorescence [2] [%]	K albumin-binding constant (HSA) [2]	Kq albumin-quenching constant (HSA) [2]	relative HSA fluorescence emission intensity (I/Io, %) remaining [2] [%]	DPPH% (DPPH scavenging ability), 20 min (DPPH radical scavenging) [%]	DPPH% (DPPH scavenging ability), 60 min (DPPH radical scavenging) [%]	AChE (I%) inhibition rate [3] [%]	ΔI/Io (%) quenching of BSA fluorescence [4] [%]	K albumin-binding constant (BSA) [4]	Kq albumin-quenching constant (BSA) [4]	relative BSA fluorescence emission intensity (I/Io, %) remaining [4] [%]	OH% (competition % with DMSO for hydroxyl radical) [5] [%]	BuChE (I%) inhibition rate [6] [%]	SI (selectivity index = IBuChE/IAChE) [6]	DPPH% (span over 20-min and 60-min treatments) (DPPH radical scavenging; 20 min and 60 min)
[Fe3O(dicl)6(MeOH)3][FeCl4]·Hdicl·1.5MeOH∙H2O [Complex 3]	Soluble in DMSO	96.5	2.42 (±0.17) × 10^5 M^−1	5.22 (±0.35) × 10^13 M^−1s^−1	3.5	18.94 ± 0.73	18.98 ± 0.74	3.55 ± 1.26	97.6	5.44 (±0.05) × 10^5 M^−1	8.45 (±0.31) × 10^13 M^−1s^−1	2.4	94.31 ± 0.78	76.65 ± 1.95	21.59	
[Fe3O(dicl)6(py)3]Cl∙py [Complex 2]	Soluble in DMSO	99.4	3.87 (±0.42) × 10^5 M^−1	6.09 (±0.30) × 10^13 M^−1s^−1	0.6	23.12 ± 0.37	22.97 ± 0.17	3.56 ± 0.11	92.5	6.09 (±0.31) × 10^5 M^−1	8.70 (±0.43) × 10^13 M^−1s^−1	7.5	87.89 ± 0.84	74.36 ± 1.40	20.89	22.97–23.12%
